{
  "source": "ChEMBL document CHEMBL3392975",
  "about": "“Design and nuclear magnetic resonance (NMR) structure determination of the second extracellular immunoglobulin tyrosine kinase A (TrkAIg2) domain construct for binding site elucidation in drug discovery” (J Med Chem, 2015)",
  "key": {"[1]": {"target": "T1, High affinity nerve growth factor receptor (Homo sapiens, UniProt P04629)", "T1 sequence (P04629 whole entry)": "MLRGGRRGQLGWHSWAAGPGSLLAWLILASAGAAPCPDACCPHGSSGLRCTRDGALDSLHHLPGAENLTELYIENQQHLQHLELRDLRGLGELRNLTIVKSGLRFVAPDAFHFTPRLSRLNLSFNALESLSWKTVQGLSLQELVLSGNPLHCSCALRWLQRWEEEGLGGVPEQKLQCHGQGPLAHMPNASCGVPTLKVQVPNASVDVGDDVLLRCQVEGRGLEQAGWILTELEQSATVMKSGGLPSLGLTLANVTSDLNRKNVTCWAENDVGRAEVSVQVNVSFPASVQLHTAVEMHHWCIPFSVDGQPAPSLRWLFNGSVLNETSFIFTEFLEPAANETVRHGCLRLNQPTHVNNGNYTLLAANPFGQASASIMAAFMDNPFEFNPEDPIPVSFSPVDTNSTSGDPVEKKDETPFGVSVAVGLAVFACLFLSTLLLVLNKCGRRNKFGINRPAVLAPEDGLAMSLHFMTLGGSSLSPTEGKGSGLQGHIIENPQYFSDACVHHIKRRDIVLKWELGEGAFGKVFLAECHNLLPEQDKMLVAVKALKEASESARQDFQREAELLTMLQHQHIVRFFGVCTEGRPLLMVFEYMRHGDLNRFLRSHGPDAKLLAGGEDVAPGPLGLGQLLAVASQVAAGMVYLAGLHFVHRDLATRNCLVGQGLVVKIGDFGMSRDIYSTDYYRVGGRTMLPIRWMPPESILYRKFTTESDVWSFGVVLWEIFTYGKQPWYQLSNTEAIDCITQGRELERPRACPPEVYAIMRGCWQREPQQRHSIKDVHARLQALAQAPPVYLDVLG", "experiment": "Antagonist activity at full length glycosylated human TrkA expressed in HEKN3S cells assessed as reduction in NGF-induced ERK 42/44 phosphorylation incubated for 5 mins by automated immunofluorescence assay", "format": "cell-based"}, "[2]": {"target": "T1, High affinity nerve growth factor receptor", "experiment": "Binding affinity to F303 residue of human recombinant TrkAIg2-NMR construct expressed in Escherichia coli by 1H-15N HSQC NMR spectroscopy"}, "[3]": {"target": "T1, High affinity nerve growth factor receptor", "experiment": "Displacement of [125I]NGF from full length human TrkA expressed in HEKN3S cells by gamma counting based radioligand competition assay", "format": "cell-based"}, "[4]": {"target": "T1, High affinity nerve growth factor receptor", "experiment": "Binding affinity to C345 residue of human recombinant TrkAIg2-NMR construct expressed in Escherichia coli by 1H-15N HSQC NMR spectroscopy"}, "[5]": {"target": "T1, High affinity nerve growth factor receptor", "experiment": "Binding affinity to T292 residue of human recombinant TrkAIg2-NMR construct expressed in Escherichia coli by 1H-15N HSQC NMR spectroscopy"}, "[6]": {"target": "T1, High affinity nerve growth factor receptor", "experiment": "Binding affinity to V305 residue of human recombinant TrkAIg2-NMR construct expressed in Escherichia coli by 1H-15N HSQC NMR spectroscopy"}},
  "data": [
    {"smiles": "CN(C)CCC=C1c2ccccc2CCc2ccccc21", "note": "[AMITRIPTYLINE]", "values": [
      {"measurement": "EC50", "setting": "[1]", "value": 0.086, "unit": "mM"},
      {"measurement": "Kd", "setting": "[2]", "value": 2.2, "unit": "mM"},
      {"measurement": "IC50", "setting": "[3]", "value": 0.06, "unit": "mM"},
      {"measurement": "Kd", "setting": "[4]", "value": 2.1, "unit": "mM"},
      {"measurement": "Kd", "setting": "[5]", "value": 1.8, "unit": "mM"},
      {"measurement": "Kd", "setting": "[6]", "value": 2.1, "unit": "mM"}
    ]}
  ]
}
